Experimental data published in US20250059171A1 (Hoffmann-La Roche Inc., priority 2021, published 2025).

How the values were obtained:
SARS-CoV 3CLpro = SARS-CoV 3CLpro (Severe acute respiratory syndrome coronavirus, UniProt P0C6X7); experiment: biochemical
SARS-CoV-2 3CLpro = SARS-CoV-2 3CLpro (Severe acute respiratory syndrome coronavirus 2, UniProt P0DTD1); experiment: biochemical
HCoV-229E 3CLpro = HCoV-229E 3CLpro (Human coronavirus 229E, UniProt P0C6X1); experiment: HCoV-229E 3CLpro inhibition assay (FRET); type: biochemical
HCoV-229E 3CLpro, sequence (P0C6X1 2966-3267): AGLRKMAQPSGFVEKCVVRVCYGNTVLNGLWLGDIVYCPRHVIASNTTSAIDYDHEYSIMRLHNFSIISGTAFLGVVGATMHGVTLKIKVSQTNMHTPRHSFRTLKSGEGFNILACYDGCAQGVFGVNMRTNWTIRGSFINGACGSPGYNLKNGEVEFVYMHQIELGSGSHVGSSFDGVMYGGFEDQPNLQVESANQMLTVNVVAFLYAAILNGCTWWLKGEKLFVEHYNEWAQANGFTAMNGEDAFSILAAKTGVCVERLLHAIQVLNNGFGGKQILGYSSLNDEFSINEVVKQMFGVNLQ

MERS-CoV 3CLpro = MERS-CoV 3CLpro (Middle East respiratory syndrome-related coronavirus, UniProt K9N7C7); experiment: biochemical
MERS-CoV 3CLpro, sequence (K9N7C7 3248-3553): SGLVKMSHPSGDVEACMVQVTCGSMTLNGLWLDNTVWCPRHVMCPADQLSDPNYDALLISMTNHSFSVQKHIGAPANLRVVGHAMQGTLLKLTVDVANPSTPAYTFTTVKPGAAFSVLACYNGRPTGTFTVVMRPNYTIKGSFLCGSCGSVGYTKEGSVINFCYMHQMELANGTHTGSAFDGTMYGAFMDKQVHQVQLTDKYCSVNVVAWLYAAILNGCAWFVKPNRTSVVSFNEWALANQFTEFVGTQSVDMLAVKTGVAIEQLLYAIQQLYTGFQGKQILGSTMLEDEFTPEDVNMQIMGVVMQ

SMILES | IC50 (SARS-CoV 3CLpro) [nM] | IC50 (SARS-CoV-2 3CLpro) [nM] | IC50 (HCoV-229E 3CLpro) [nM] | IC50 (MERS-CoV 3CLpro) [nM]
CC(C)(C)[C@H](NC(=O)C(F)(F)F)C(=O)N1C[C@H]2[C@@H]([C@H]1C(=O)NN(CCC(N)=O)C(=O)[C@H](F)Cl)C2(C)C [Example 87, 3-[[(2R)-2-chloro-2-fluoro-acetyl]-[[(1R,2S,5S)-3-[(2S)-3,3-dimethyl-2-[(2,2,2-trifluoroacetyl)amino]butanoyl]-6,6-dimethyl-3-azabicyclo[3.1.0]hexane-2-carbonyl]amino]amino]propanamide] | 9.3 | 14 | 19 | 73
CC(C)(C)[C@H](NC(=O)C1CC(F)(F)C1)C(=O)N1C[C@H]2[C@@H]([C@H]1C(=O)NN(C[C@@H]1CCNC1=O)C(=O)[C@H](F)Cl)C2(C)C [Example 90, N-[(1S)-1-[(1R,2S,5S)-2-[[[(2R)-2-chloro-2-fluoro-acetyl]-[[(3S)-2-oxopyrrolidin-3-yl]methyl]amino]carbamoyl]-6,6-dimethyl-3-azabicyclo[3.1.0]hexane-3-carbonyl]-2,2-dimethyl-propyl]-3,3-difluoro-cyclobutanecarboxamide] | 12 | 10 | 22 | 55
CC(C)(C)[C@H](NC(=O)C1(F)CCC1)C(=O)N1C[C@H]2[C@@H]([C@H]1C(=O)NN(C[C@@H]1CCNC1=O)C(=O)[C@H](F)Cl)C2(C)C [Example 91, N-[(1S)-1-[(1R,2S,5S)-2-[[[(2R)-2-chloro-2-fluoro-acetyl]-[[(3S)-2-oxopyrrolidin-3-yl]methyl]amino]carbamoyl]-6,6-dimethyl-3-azabicyclo[3.1.0]hexane-3-carbonyl]-2,2-dimethyl-propyl]-1-fluoro-cyclobutanecarboxamide] | 15 | 12 | 39 | 115
CC(C)(C)[C@H](NC(=O)[C@@H]1CC1(F)F)C(=O)N1C[C@H]2[C@@H]([C@H]1C(=O)NN(C[C@@H]1CCNC1=O)C(=O)[C@H](F)Cl)C2(C)C [Example 92, (1S)—N-[(1S)-1-[(1R,2S,5S)-2-[[[(2R)-2-chloro-2-fluoro-acetyl]-[[(3S)-2-oxopyrrolidin-3-yl]methyl]amino]carbamoyl]-6,6-dimethyl-3-azabicyclo[3.1.0]hexane-3-carbonyl]-2,2-dimethyl-propyl]-2,2-difluoro-cyclopropanecarboxamide] | 18 | 8 | 23 | 57
CC(C)(C)[C@H](NC(=O)C1CC(F)(F)C1)C(=O)N1C[C@H]2[C@@H]([C@H]1C(=O)NN(C[C@@H]1CCNC1=O)C(=O)[C@@H](F)Cl)C2(C)C [Example 93, N-[(1S)-1-[(1R,2S,5S)-2-[[[(2S)-2-chloro-2-fluoro-acetyl]-[[(3S)-2-oxopyrrolidin-3-yl]methyl]amino]carbamoyl]-6,6-dimethyl-3-azabicyclo[3.1.0]hexane-3-carbonyl]-2,2-dimethyl-propyl]-3,3-difluoro-cyclobutanecarboxamide] | 54 | 31 | 42 | 94
CC(C)(C)[C@H](NC(=O)C1(F)CC1)C(=O)N1C[C@H]2[C@@H]([C@H]1C(=O)NN(C[C@@H]1CCNC1=O)C(=O)[C@@H](F)Cl)C2(C)C [Example 94, N-[(1S)-1-[(1R,2S,5S)-2-[[[(2S)-2-chloro-2-fluoro-acetyl]-[[(3S)-2-oxopyrrolidin-3-yl]methyl]amino]carbamoyl]-6,6-dimethyl-3-azabicyclo[3.1.0]hexane-3-carbonyl]-2,2-dimethyl-propyl]-1-fluoro-cyclopropanecarboxamide] | 29 | 21 | 59 | 136
